Test results from patent US9999222B2, “Herbicidal combination comprising azines” (BASF SE, priority 2014, dated 2018).
Where two headings read alike, the source gives them in different places.

Key:
Test in all cases: Greenhouse test, pre-emergence treatment
[1] = system: POLCO; type: in vivo, Polygonum convolvulus; settings: Fallopia convolvulus, pre-emergence, 480 h, 20 g ai/ha, 20 DAT; read-out: observed % activity
Procedure, shortened: (§1)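 Seeds were sown in loamy sand with about 3.0% humus, and compounds in water were sprayed immediately after sowing, alone or as combinations formulated as 10% emulsion concentrates. Plants grew under hoods until rooted, at 10-25 °C or 20-35 °C by species, for 2 to 4 weeks. Damage was scored 0-100 (100 = no emergence or complete destruction), and Colby expected values were E=X+Y−(X·Y/100).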

[2] = system: SETFA; type: in vivo, Setaria faberi; settings: Setaria faberi, 480 h, use rate 30 g ai/ha, read-out: observed % activity 20 DAT
Procedure, shortened: as §1

[3] = system: BRADC; type: in vivo, Brachiaria decumbens; settings: Urochloa decumbens, pre-emergence, 480 h
Procedure, shortened: as §1

[4] = system: GALAP; type: in vivo, Galium aparine; settings: Galium aparine, pre-emergence, 480 h, 40 g ai/ha, 20 DAT; read-out: observed % activity
Procedure, shortened: as §1

[5] = system: AVEFA; type: in vivo, Avena fatua; settings: pre-emergence
Procedure, shortened: as §1

[6] = system: PHACA; type: in vivo, Phalaris canariensis; settings: Phalaris canariensis, pre-emergence, 480 h
Procedure, shortened: as §1

[7] = system: ECHCG; type: in vivo, Echinocloa crus-galli; settings: Echinochloa crus-galli, 480 h, read-out: observed % activity 20 DAT
Procedure, shortened: as §1

[8] = system: KCHSC; type: in vivo, Kochia scoparia; settings: Bassia scoparia, pre-emergence, 480 h
Procedure, shortened: as §1

[9] = system: ALOMY; type: in vivo, Alopecurus myosuroides; settings: Alopecurus myosuroides, pre-emergence, 480 h
Procedure, shortened: as §1

[10] = system: VIOAR; type: in vivo, Viola arvensis; settings: use rate 30 g ai/ha, 20 DAT
From the text: The culture containers used were plastic flowerpots containing loamy sand with approximately 3.0% of humus as the substrate. The seeds of the test plants were sown separately for each species.
For the pre-emergence treatment, the active ingredients, which had been suspended or emulsified in water, were applied directly after sowing by means of finely distributing nozzles. The containers were irrigated gently to promote germination and growth and subsequently covered with transparent plastic hoods until the plants had rooted. This cover caused uniform germination of the test plants, unless this had been impaired by the active ingredients.
Depending on the species, the plants were kept at 10-25° C. or 20-35° C., respectively.
The test period extended over 2 to 4 weeks. During this time, the plants were tended, and their response to the individual treatments was evaluated.
Evaluation was carried out using a scale from 0 to 100. 100 means no emergence of the plants, or complete destruction of at least the aerial moieties, and 0 means no damage, or normal course of growth. A moderate herbicidal activity is given at values of at least 60, a good herbicidal activity is given at values of at least 70, and a very good herbicidal activity is given at values of at least 85.
The respective stated components a and b, and if appropriate, c were formulated as a 10% by weight strength emulsion concentrate and, with addition of the amount of solvent system, introduced into the spray liquor used for applying the active compound.
In the examples, the solvent used was water.
In the examples below, using the method of S. R. Colby (1967) “Calculating synergistic and antagonistic responses of herbicide combinations”, Weeds 15, p. 22ff., the value E, which is expected if the activity of the individual active compounds is only additive, was calculated. E=X+Y−(X·Y/100) where • X=percent activity using active compound a at an application rate A; • Y=percent activity using active compound b at an application rate B; • E=expected activity (in %) by a+b at application rates A+B.
If the value found experimentally is higher than the value E calculated according to Colby, a synergistic effect is present.

[11] = system: LOLMU; type: in vivo, Lolium multiflorum; settings: Lolium multiflorum, pre-emergence, 480 h, pre-emergence, read-out: observed % activity 20 DAT
Procedure, shortened: as §1

[12] = 40 g ai/ha, 20 DAT, read-out: observed % activity
[13] = 10 g ai/ha, read-out: observed % activity 20 DAT
[14] = 20 g ai/ha, read-out: observed % activity 20 DAT
[15] = 30 g ai/ha, read-out: observed % activity 20 DAT
[16] = 40 g ai/ha, read-out: observed % activity 20 DAT
[17] = 10 g ai/ha, 20 DAT, read-out: observed % activity
[18] = 20 g ai/ha, 20 DAT, read-out: observed % activity
[19] = use rate 30 g ai/ha, read-out: observed % activity 20 DAT
[20] = use rate 60 g ai/ha, 20 DAT, read-out: observed % activity 20 DAT
[21] = use rate 60 g ai/ha, read-out: observed % activity 20 DAT

With `CC(C)N(C(=O)COc1nnc(C(F)(F)F)s1)c1ccc(F)cc1` [Flufenacet, flufenacet] the inhibition at 20 g/ha [1] was 0%, the inhibition at 30 g/ha [2] was 98% and the inhibition at 40 g/ha [3, 12] was 65%. For the same molecule, the pest or weed control at 10 g/ha [3, 13] was 45%, the pest or weed control at 20 g/ha [3, 14] was 40% and the pest or weed control at 30 g/ha [3, 15] was 0%. For the same molecule, the pest or weed control at 40 g/ha [3, 16] was 25%, the pest or weed control at 60 g/ha ([3]; 60 g ai/ha, read-out: observed % activity 20 DAT) was 98% and the inhibition at 40 g/ha [4] was 40%. For the same molecule, the inhibition at 40 g/ha ([5]; Avena fatua, 480 h, 40 g ai/ha, 20 DAT, read-out: observed % activity) was 10%, the “observed % activity 20 DAT” value ([5]; 30 g ai/ha) was 0% and the “observed % activity 20 DAT” value ([5]; 40 g ai/ha) was 55%. For the same molecule, the inhibition at 10 g/ha [6, 17] was 0%, the inhibition at 20 g/ha [6, 18] was 33% and the pest or weed control at 10 g/ha [6, 13] was 10%. The pest or weed control at 20 g/ha [6, 14] was 65%, the pest or weed control at 30 g/ha [6, 15] was 80% and the pest or weed control at 40 g/ha [6, 16] was 75%. It also gave an inhibition at 30 g/ha [6, 19] of 65%, a pest or weed control at 60 g/ha [6, 20] of 98% and an inhibition at 60 g/ha [6, 21] of 98%. The pest or weed control at 30 g/ha ([7]; 30 g ai/ha) was 75%, the pest or weed control at 60 g/ha ([7]; 60 g ai/ha) was 95% and the pest or weed control at 30 g/ha ([7]; use rate 30 g ai/ha, 20 DAT) was 85%. It also gave an inhibition at 30 g/ha ([7]; use rate 30 g ai/ha) of 85%, an inhibition at 10 g/ha [8, 17] of 0% and an inhibition at 20 g/ha [8, 18] of 0%. It also gave an inhibition at 40 g/ha [8, 12] of 0%, an inhibition at 30 g/ha [8, 19] of 0% and an inhibition at 60 g/ha [8, 21] of 0%. It also gave an inhibition at 10 g/ha [9, 17] of 28%, a pest or weed control at 10 g/ha [9, 13] of 25% and a pest or weed control at 20 g/ha [9, 14] of 70%. It also gave a pest or weed control at 40 g/ha [9, 16] of 75%, an inhibition at 30 g/ha [9, 19] of 75% and a pest or weed control at 60 g/ha [9, 20] of 80%. The inhibition at 60 g/ha [9, 21] was 80%, the “observed % activity 20 DAT” value [10] was 0% and the pest or weed control at 10 g/ha ([11]; 10 g ai/ha) was 0%. It also gave a pest or weed control at 20 g/ha ([11]; 20 g ai/ha) of 20%, a pest or weed control at 30 g/ha ([11]; 30 g ai/ha) of 30% and a pest or weed control at 40 g/ha ([11]; 40 g ai/ha) of 55%. For the same molecule, the pest or weed control at 30 g/ha ([11]; use rate 30 g ai/ha, 20 DAT) was 0%, the inhibition at 30 g/ha ([11]; use rate 30 g ai/ha) was 20% and the pest or weed control at 60 g/ha ([11]; use rate 60 g ai/ha, 20 DAT) was 30%. For the same molecule, the inhibition at 60 g/ha ([11]; use rate 60 g ai/ha) was 30%.
